The values below come from PubChem BioAssay AID336 (DTP/NCI, 2004).

“And” between values parts separate entries of the source, which are not always exact repeats. Identical values can stand only once. Inconclusive results and toxic doses are left out.

In the assay the test system is BDF1 mice, P388/VCR leukemia ip, median survival T/C. The experiment in a line: NCI In Vivo Anticancer Drug Screen. Data for tumor model P388 Leukemia resistant to Vincristine; NSC 67574 (intraperitoneal) in B6D2F1 (BDF1) mice. To be noted: endpoint: median survival time, higher = longer survival. How it is done:
The antitumor activity of compounds was measured in mice bearing transplantable tumors. Survival or tumor size were measured and the results are expressed as the measurement made in the treated group (T) divided by the measurement made in the vehicle treated control group (C). The tumor model used in this assay is P388 Leukemia resistant to Vincristine; NSC 67574 (intraperitoneal) in B6D2F1 (BDF1) mice

Where [1] appears, read: dose: 10.0 mg/kg/injection, schedule: Q01DX010 (ip), vehicle: saline.
Setting [2] is: dose: 20.0 mg/kg/injection, schedule: Q01DX010 (ip), vehicle: saline.
[3] abbreviates: dose: 45.0 mg/kg/injection, schedule: Q01DX010 (ip), vehicle: saline.

In the case of `CCN(CC)CCNc1ccc(CO)c2sc3ccccc3c(=O)c12`, the T/C reads like this: (dose: 21.6 mg/kg/injection, schedule: Q01DX009 (ip), vehicle: water) 109 % of control; (dose: 25.2 mg/kg/injection, schedule: Q01DX009 (ip), vehicle: water) 120 % of control; (dose: 36.0 mg/kg/injection, schedule: Q01DX009 (ip), vehicle: water) 112 % of control; (dose: 114.0 mg/kg/injection, schedule: Q01DX009 (ip), vehicle: water) 90 % of control.

With `Cn1c(N)nc2nc[nH]c2c1=S`, the T/C is 92 % of control and 100 % of control under setting [1]; 96 % of control and 107 % of control under setting [2]; 100 % of control and 123 % of control (dose: 40.0 mg/kg/injection, schedule: Q01DX010 (ip), vehicle: saline); 96 % of control (dose: 80.0 mg/kg/injection, schedule: Q01DX010 (ip), vehicle: saline).

Take `O=P1(N(CCCl)CCCl)NCCCO1` (stereo not given): the T/C is 181 % of control (dose: 144.0 mg/kg/injection, schedule: Q01DX001 (ip), vehicle: saline) and 194 % of control (dose: 240.0 mg/kg/injection, schedule: Q01DX001 (ip), vehicle: saline).

For the compound `O=C(Nc1ccc(C2=NCCN2)cc1)c1ccc(C(=O)Nc2ccc(C3=NCCN3)cc2)c(F)c1`, the T/C by setting is: (dose: 22.5 mg/kg/injection, schedule: Q01DX010 (ip), vehicle: saline) 100 % of control; under setting [3], 107 % of control; (dose: 90.0 mg/kg/injection, schedule: Q01DX010 (ip), vehicle: saline) 123 % of control.

On to `CCC1(O)CC2CN(CCc3c([nH]c4ccccc34)C(C(=O)OC)(c3cc4c(cc3OC)N(C)C3C(O)(C(=O)NCCSSCCNC(=O)C5(O)C(O)C6(CC)C=CCN7CCC8(c9cc(C%10(C(=O)OC)CC%11CN(CCc%12c%10[nH]c%10ccccc%12%10)CC(O)(CC)C%11)c(OC)cc9N(C)C58)C76)C(O)C5(CC)C=CCN6CCC43C65)C2)C1` (stereo not given), for which the T/C was 117 % of control (dose: 250.0 micrograms/kg/injection, schedule: Q04DX003 (ip), vehicle: saline); 154 % of control (dose: 648.0 micrograms/kg/injection, schedule: Q04DX003 (ip), vehicle: saline); 161 % of control (dose: 1000.0 micrograms/kg/injection, schedule: Q04DX003 (ip), vehicle: saline); 164 % of control (dose: 2000.0 micrograms/kg/injection, schedule: Q04DX003 (ip), vehicle: saline); 90 % of control (dose: 3000.0 micrograms/kg/injection, schedule: Q04DX003 (ip), vehicle: saline).

Turning to `COc1cc2cc3c4cc(OC)c(OC)cc4cc[n+]3c(C)c2cc1OC` (tested in a mixture with another compound), the T/C reads like this: (dose: 46.7 mg/kg/injection, schedule: Q04DX003 (ip), vehicle: alkali diluted with saline) 106 % of control; (dose: 77.8 mg/kg/injection, schedule: Q04DX003 (ip), vehicle: alkali diluted with saline) 110 % of control; (dose: 130.0 mg/kg/injection, schedule: Q04DX003 (ip), vehicle: alkali diluted with saline) 115 % of control; (dose: 216.0 mg/kg/injection, schedule: Q04DX003 (ip), vehicle: alkali diluted with saline) 124 % of control.

On to `O=C1CCC(N2C(=O)c3ccccc3C2=O)C(=O)N1` (stereo not given), for which the T/C was 95 % of control (dose: 62.5 mg/kg/injection, schedule: Q01DX010 (ip), vehicle: saline) and 91 % of control (dose: 125.0 mg/kg/injection, schedule: Q01DX010 (ip), vehicle: saline).

For the compound `CC[C@H]1CN2CCc3cc(OC)c(OC)cc3[C@@H]2C[C@@H]1C[C@H]1NCCc2cc(OC)c(OC)cc21`, the T/C reads like this: (dose: 7.78 mg/kg/injection, schedule: Q04DX003 (ip), vehicle: saline) 105 % of control; (dose: 13.0 mg/kg/injection, schedule: Q04DX003 (ip), vehicle: saline) 108 % of control; (dose: 21.6 mg/kg/injection, schedule: Q04DX003 (ip), vehicle: saline) 105 % of control.

In the case of `COc1cc([C@@H]2c3cc4c(cc3[C@@H](OC3OC5COC(C)OC5C(O)C3O)[C@H]3COC(=O)[C@H]23)OCO4)cc(OC)c1O` (stereo not given in full), the T/C (dose: 7.48 mg/kg/injection, schedule: Q04DX003 (ip), vehicle: other) is 274 % of control; the T/C (dose: 12.5 mg/kg/injection, schedule: Q04DX003 (ip), vehicle: other) is 250 % of control; the T/C (dose: 20.8 mg/kg/injection, schedule: Q04DX003 (ip), vehicle: other) is 307 % of control; the T/C (dose: 34.6 mg/kg/injection, schedule: Q04DX003 (ip), vehicle: other) is 340 % of control.

Consider `CC(CCC(C)OS(C)(=O)=O)OS(C)(=O)=O` (stereo not given), for which the T/C was 100 % of control (dose: 2.0 mg/kg/injection, schedule: Q01DX010 (ip), vehicle: saline); 96 % of control (dose: 4.0 mg/kg/injection, schedule: Q01DX010 (ip), vehicle: saline); 96 % of control and 100 % of control (dose: 8.0 mg/kg/injection, schedule: Q01DX010 (ip), vehicle: saline); 100 % of control and 112 % of control (dose: 16.0 mg/kg/injection, schedule: Q01DX010 (ip), vehicle: saline); 90 % of control (dose: 32.0 mg/kg/injection, schedule: Q01DX010 (ip), vehicle: saline).

Regarding `COc1cccc2c1C(=O)c1c(O)c3c(c(O)c1C2=O)C[C@@](O)(C(=O)CO)C[C@@H]3OC1CC(N)C(O)C(C)O1` (stereo not given in full), the T/C is, setting by setting: (dose: 1.44 mg/kg/injection, schedule: Q04DX003 (ip), vehicle: saline) 172 % of control; (dose: 1.44 mg/kg/injection, schedule: Q04DX003 (ip), vehicle: water) 168 % of control; (dose: 2.4 mg/kg/injection, schedule: Q04DX003 (ip), vehicle: saline) 188 % of control; (dose: 2.4 mg/kg/injection, schedule: Q04DX003 (ip), vehicle: water) 159 % of control and 200 % of control; (dose: 4.0 mg/kg/injection, schedule: Q04DX003 (ip), vehicle: saline) 169 % of control; (dose: 4.0 mg/kg/injection, schedule: Q04DX003 (ip), vehicle: water) 155 % of control and 168 % of control. Also, the T/C runs as follows: (dose: 6.67 mg/kg/injection, schedule: Q04DX003 (ip), vehicle: saline) 182 % of control; (dose: 6.67 mg/kg/injection, schedule: Q04DX003 (ip), vehicle: water) 100 % of control.

For the compound `CC(=O)c1cccc(NC2C(N)C(NC(=O)N(C)C)(C(C)O)C(C)(O)C2(O)COC(=O)c2c(C)cccc2O)c1` (stereo not given), the T/C (dose: 5.4 mg/kg/injection, schedule: Q04DX003 (ip), vehicle: alkali diluted with saline) is 98 % of control; the T/C (dose: 9.0 mg/kg/injection, schedule: Q04DX003 (ip), vehicle: alkali diluted with saline) was 98 % of control; the T/C (dose: 15.0 mg/kg/injection, schedule: Q04DX003 (ip), vehicle: alkali diluted with saline) was 100 % of control.

As for `CNc1nc(Nc2ccc(C3=NCCN3)cc2)nc(Nc2ccc(C3=NCCN3)cc2)n1`, the T/C was 116 % of control under setting [2]; 108 % of control (dose: 30.0 mg/kg/injection, schedule: Q01DX010 (ip), vehicle: saline); 91 % of control under setting [3].

Regarding `NC(Cc1ccc(N(CCCl)CCCl)cc1)C(=O)O` (stereo not given), the T/C reads like this: (dose: 1.25 mg/kg/injection, schedule: Q01DX010 (ip), vehicle: saline) 170 % of control; (dose: 2.5 mg/kg/injection, schedule: Q01DX010 (ip), vehicle: saline) 190 % of control and 191 % of control; (dose: 5.0 mg/kg/injection, schedule: Q01DX010 (ip), vehicle: saline) 300 % of control; under setting [1], 86 % of control and 91 % of control.

`O=C(Nc1ccc(NC(=O)Nc2cccc(C3=NCCN3)c2)cc1)Nc1cccc(C2=NCCN2)c1`: the T/C (dose: 120.0 mg/kg/injection, schedule: Q01DX010 (ip), vehicle: saline) is 162 % of control and 183 % of control; the T/C (dose: 480.0 mg/kg/injection, schedule: Q01DX010 (ip), vehicle: saline) is 100 % of control.

With `Cc1c2ccncc2c(C)c2c1[nH]c1ccccc12`, the T/C reads like this: (dose: 13.0 mg/kg/injection, schedule: Q04DX003 (ip), vehicle: water) 150 % of control; (dose: 21.6 mg/kg/injection, schedule: Q04DX003 (ip), vehicle: water) 210 % of control; (dose: 24.0 mg/kg/injection, schedule: Q04DX003 (ip), vehicle: clinical formulation) 158 % of control; (dose: 36.0 mg/kg/injection, schedule: Q04DX003 (ip), vehicle: water) 253 % of control; (dose: 40.0 mg/kg/injection, schedule: Q04DX003 (ip), vehicle: clinical formulation) 203 % of control; (dose: 60.0 mg/kg/injection, schedule: Q04DX003 (ip), vehicle: water) 93 % of control. Besides, the T/C (dose: 66.7 mg/kg/injection, schedule: Q04DX003 (ip), vehicle: clinical formulation) was 98 % of control.

Consider `CC[C@H]1CN2CCc3cc(OC)c(OC)cc3[C@@H]2C[C@@H]1C[C@@H]1c2cc(OC)c(OC)cc2CCN1CCN(CCCl)CCCl`, for which the T/C is, setting by setting: (dose: 6.48 mg/kg/injection, schedule: Q04DX003 (ip), vehicle: saline with Tween-80) 107 % of control; (dose: 10.8 mg/kg/injection, schedule: Q04DX003 (ip), vehicle: saline with Tween-80) 111 % of control.
